Assay results: PMC6478669, “Engineered Orthogonal Quorum Sensing Systems for Synthetic Gene Regulation in Escherichia coli” (Frontiers in Bioengineering and Biotechnology, 2019)

How the values were obtained:
Assay in all cases: GFP reporter induction, plate reader
Format in all cases: cell-based
LuxR [1] = biological target: T1, LuxR (Aliivibrio fischeri, UniProt P12746); conditions: E. coli BL21 Receiver cells, LB, 37 °C, half-maximal max rate of GFP/OD600; unreliable (little to no response without oxo group)
T1 construct: Receiver plasmid in E. coli BL21, regulator cassette upstream of pLux-GFP; same synthetic system as Canton et al. 2008; acts as dimer
T1 sequence (P12746 1-250): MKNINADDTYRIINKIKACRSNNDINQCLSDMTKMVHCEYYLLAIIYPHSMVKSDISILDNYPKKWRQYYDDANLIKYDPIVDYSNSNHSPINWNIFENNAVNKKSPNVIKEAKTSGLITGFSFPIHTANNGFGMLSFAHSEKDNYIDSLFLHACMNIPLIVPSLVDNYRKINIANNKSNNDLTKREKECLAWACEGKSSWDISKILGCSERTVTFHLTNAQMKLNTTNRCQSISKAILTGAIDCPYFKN

AubR = biological target: T2, AubR (uncultured bacterium, UniProt K0J3R4); conditions: read-out: Kmapprox
T2 construct: constitutively expressed from Receiver plasmid (pSB1A3) in E. coli BL21 with hybrid pAub promoter-GFP reporter; acts as dimer

LuxR [2] = biological target: T1, LuxR; conditions: E. coli BL21 Receiver cells, LB, 37 °C, half-maximal max rate of GFP/OD600
LasR = biological target: T3, LasR (Pseudomonas aeruginosa, UniProt P25084); conditions: E. coli BL21 Receiver cells, LB, 37 °C, half-maximal max rate of GFP/OD600
T3 construct: constitutively expressed from Receiver plasmid (pSB1A3) in E. coli BL21 with hybrid pLas promoter-GFP reporter; acts as dimer
T3 sequence (P25084 whole entry): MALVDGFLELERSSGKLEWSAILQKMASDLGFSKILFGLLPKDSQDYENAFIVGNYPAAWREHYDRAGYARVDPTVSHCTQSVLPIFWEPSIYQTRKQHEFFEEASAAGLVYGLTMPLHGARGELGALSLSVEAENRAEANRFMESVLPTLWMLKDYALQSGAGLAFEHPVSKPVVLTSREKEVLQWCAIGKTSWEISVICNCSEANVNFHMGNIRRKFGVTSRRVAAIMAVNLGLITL

T2 sequence (K0J3R4 1-267): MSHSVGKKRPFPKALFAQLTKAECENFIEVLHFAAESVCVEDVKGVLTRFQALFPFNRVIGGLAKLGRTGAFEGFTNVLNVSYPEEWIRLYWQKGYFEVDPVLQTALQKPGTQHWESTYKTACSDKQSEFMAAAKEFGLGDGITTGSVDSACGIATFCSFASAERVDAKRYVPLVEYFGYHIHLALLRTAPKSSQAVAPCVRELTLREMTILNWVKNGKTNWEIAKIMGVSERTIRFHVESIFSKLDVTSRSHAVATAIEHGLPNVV

| SMILES | EC50 (AubR) [nM] | Kmapprox (LuxR [2]) | also measured |
| --- | --- | --- | --- |
| CCCC(=O)N[C@H]1CCOC1=O [C4-HSL] |  |  | Kmapprox (LuxR [1]): ~ 1.0E-6–1.0E-5 M |
| CCCCCCCCCCCC(=O)N[C@H]1CCOC1=O [C12 HSL] | 5 |  |  |
| CCCCCCCCCC(=O)CC(=O)N[C@H]1CCOC1=O [3-oxo-C12 HSL] | 100 |  |  |
| CCCCCCCCCCCC(=O)CC(=O)N[C@H]1CCOC1=O [3-oxo-C14 HSL] |  | ~ between 1.00E-8 and 1.00E-7 M | Kmapprox (LasR): ~ between 1.00E-9 and 1.00E-8 M |
| CCCCCC(=O)CC(=O)N[C@H]1CCOC1=O [3-oxo-C8] |  | ~ between 1.00E-7 and 1.00E-8 M |  |
